These results are taken from paper PMC6450887, “Metabolic resistance of the D-peptide RD2 developed for direct elimination of amyloid-β oligomers” (Scientific Reports, 2019).

Several values for one entry are separate records, joined by “and”; a condition that tells them apart may be missing. Identical values can stand only once. Non-standard residues stand in square brackets, D forms with d. Residues, ends and D or L forms follow the SMILES beside them. No end group written: not given here. *: point of attachment. X1 = C[C@H](O)[C@H](C(=O)*)N1CN2CCC[C@@H]2C1=O

Series [1] in a line: Stability in simulated intestinal fluid (SIF), RP-HPLC. The class given is in vitro ADME. Conditions: a few seconds. The procedure: (§1) The preparation of the media was performed as described before in Elfgen et al.[24]. Preparation of simulated gastric and intestinal fluid (SGF & SIF) was done according to the European Pharmacopoeia 7.0. Plasma samples were obtained from human blood of a volunteer donor. Pooled human liver microsomes were purchased from Sekisui XenoTech (Kansas City, USA; H1000, Lot: 0710494 and 1210270; H1500, Lot: 1210079), from Sigma-Aldrich (St. Louis, USA; M0692, Lot: SLBL1433V; M0567, Lot: SLBR2706V and SLBN7300V) and from Gibco, Thermo Fisher Scientific (Waltham, USA; HMMCPL, Lot: PL050; HMMCPM, Lot: PL039). Pooled Sprague Dawley rat liver microsomes were purchased from Sigma-Aldrich (St. Louis, USA; M9066, Lot: SLBN0707V) and from Gibco, Thermo Fisher Scientific (Waltham, USA; RTMCPL, Lot: RT053). Pooled cynomolgus monkey liver microsomes were purchased from Gibco, Thermo Fisher Scientific (Waltham, USA; MKMCPL, Lot: MK062) and from Sekisui XenoTech (Kansas City, USA; P2000, Lot: 1210334). The liver microsomes were diluted in an NADPH regenerating system (NRS).
(§2) For the stability tests, 150 µM RD2 or L-RD2 was incubated in SGF, SIF, human plasma and human liver microsomes in triplicate at 37 °C with slight shaking for different time periods. To prevent microbial contaminations in long-term plasma incubations, 0.1% sodium azide was added to the solutions. Microsomal long-term activity was examined by incubating microsomes without peptide for up to 24 h and adding L-RD2 after 8 and 24 h. The ability to degrade L-RD2 served as indicator for their activity. For the comparison of RD2 metabolite profiles across species, 150 µM RD2 was incubated in human, rat and cynomolgus liver microsomes at 37 °C for 2 and 24 h. […]
(§3) For sample analysis from stability tests (see 2.3), mobile phases were acetonitrile (A) and water (B) each supplemented with 0.15% trifluoroacetic acid (TFA) (v/v). The samples were measured isocratically at 10% solvent A for 30 min. […] A chromatographic metabolite profile of L-RD2 in SIF was recorded with the same mobile phases but using a gradient from 0 to 30% solvent A in 30 min.

Series [2] deals with T1, human D-amino acid oxidase (hDAAO) (Homo sapiens, UniProt P14920).
T1 construct: made in house; host or cells: E. coli
T1 sequence (P14920 whole entry): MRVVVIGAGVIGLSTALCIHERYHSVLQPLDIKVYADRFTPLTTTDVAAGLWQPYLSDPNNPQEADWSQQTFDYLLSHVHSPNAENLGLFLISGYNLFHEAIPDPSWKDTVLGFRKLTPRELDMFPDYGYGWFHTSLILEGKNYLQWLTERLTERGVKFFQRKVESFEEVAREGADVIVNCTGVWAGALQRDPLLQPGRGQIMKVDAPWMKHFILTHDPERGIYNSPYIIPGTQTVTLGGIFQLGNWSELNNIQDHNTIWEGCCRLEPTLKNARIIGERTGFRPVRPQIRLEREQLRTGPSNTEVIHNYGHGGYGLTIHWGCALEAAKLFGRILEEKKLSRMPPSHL
Briefly: hDAAO activity assay (substrate test). The conditions noted are these: 0.2 mM D-alanine as substrate, 2 h incubation. The class given is biochemical. The procedure:
(§4) For hDAAO activity and inhibition assays, the tested substances were incubated with 0.17 U/mL recombinant hDAAO, 0.1 U/mL horseradish peroxidase (Roche, Switzerland) and 4 µM flavin adenine dinucleotide (FAD) in 50 mM sodium phosphate buffer (pH 7.4). […] The Amplex UltraRed reagent is a fluorogenic substrate for horseradish peroxidase that reacts with the hydrogen peroxide produced by the oxidative deamination of D-amino acids to build Amplex UltroxRed, a fluorescent reaction product, which served as indicator for hDAAO activity. All enzymatic assays were conducted at room temperature in 96-well plate format using an automated liquid-handler system (epMotion 5075; Eppendorf, Hamburg, Germany). Recombinant hDAAO was overexpressed in E. coli and purified as previously reported.
To investigate whether RD2 acts as substrate for hDAAO, the enzyme was incubated with 2.9 mM RD2, horseradish peroxidase and FAD for up to 6 h and the fluorescence signal of the Amplex UltroxRed reagent was measured (sample values). Positive control measurements using 0.2 mM D-alanine as substrate were performed in parallel. Additionally, negative control measurements without substrates were performed. The relative emission at 590 nm was determined by subtracting control measurements to sample values.

Series [3] is described as follows: Stability in simulated gastric fluid (SGF), RP-HPLC. The class given is in vitro ADME. The conditions noted are these: 37 °C, read-out: peptide degraded. The procedure:
as §1, with “The liver microsomes were diluted in an NADPH regenerating system (NRS).” left out
as §3

A short description of series [4]: Stability in human plasma, RP-HPLC. The conditions noted are these: female, 37 °C. The class given is in vitro ADME. The procedure:
as §1
(§5) For the stability tests, 150 µM RD2 or L-RD2 was incubated in SGF, SIF, human plasma and human liver microsomes in triplicate at 37 °C with slight shaking for different time periods. To prevent microbial contaminations in long-term plasma incubations, 0.1% sodium azide was added to the solutions. Microsomal long-term activity was examined by incubating microsomes without peptide for up to 24 h and adding L-RD2 after 8 and 24 h. The ability to degrade L-RD2 served as indicator for their activity. For the comparison of RD2 metabolite profiles across species, 150 µM RD2 was incubated in human, rat and cynomolgus liver microsomes at 37 °C for 2 and 24 h. The peptides were extracted by precipitating the proteins with trichloroacetic acid (TCA) and subsequent centrifugation, as described previously in Elfgen et al.[24]. Peptides immediately extracted from the media and precipitated media without peptides served as controls.
For sample analysis from stability tests (see 2.3), mobile phases were acetonitrile (A) and water (B) each supplemented with 0.15% trifluoroacetic acid (TFA) (v/v). The samples were measured isocratically at 10% solvent A for 30 min. This run conditions allowed us to detect smallest chemical changes including the differentiation between the original compound and a deamidated version (Fig. S1). RD2 and L-RD2 can potentially be deamidated at two sites, the C-terminus and the asparagine at position seven. Peak areas of the unmetabolized peptides after different incubation times were normalized to the peptides’ peak areas after direct extraction from the media. […] A chromatographic metabolite profile of L-RD2 in SIF was recorded with the same mobile phases but using a gradient from 0 to 30% solvent A in 30 min.

Series [5] in a line: Stability in human liver microsomes, RP-HPLC / UHPLC-ESI-QTOF-MS. The class given is in vitro ADME. As to the method: as §1, §5
For sample analysis from stability tests (see 2.3), mobile phases were acetonitrile (A) and water (B) each supplemented with 0.15% trifluoroacetic acid (TFA) (v/v). The samples were measured isocratically at 10% solvent A for 30 min. This run conditions allowed us to detect smallest chemical changes including the differentiation between the original compound and a deamidated version (Fig. S1). RD2 and L-RD2 can potentially be deamidated at two sites, the C-terminus and the asparagine at position seven. Peak areas of the unmetabolized peptides after different incubation times were normalized to the peptides’ peak areas after direct extraction from the media. […] A chromatographic metabolite profile of L-RD2 in SIF was recorded with the same mobile phases but using a gradient from 0 to 30% solvent A in 30 min. […]

In the next series the target is T2, CYP1A (Homo sapiens, UniProt P05177).
T2 sequence (P05177 2-516): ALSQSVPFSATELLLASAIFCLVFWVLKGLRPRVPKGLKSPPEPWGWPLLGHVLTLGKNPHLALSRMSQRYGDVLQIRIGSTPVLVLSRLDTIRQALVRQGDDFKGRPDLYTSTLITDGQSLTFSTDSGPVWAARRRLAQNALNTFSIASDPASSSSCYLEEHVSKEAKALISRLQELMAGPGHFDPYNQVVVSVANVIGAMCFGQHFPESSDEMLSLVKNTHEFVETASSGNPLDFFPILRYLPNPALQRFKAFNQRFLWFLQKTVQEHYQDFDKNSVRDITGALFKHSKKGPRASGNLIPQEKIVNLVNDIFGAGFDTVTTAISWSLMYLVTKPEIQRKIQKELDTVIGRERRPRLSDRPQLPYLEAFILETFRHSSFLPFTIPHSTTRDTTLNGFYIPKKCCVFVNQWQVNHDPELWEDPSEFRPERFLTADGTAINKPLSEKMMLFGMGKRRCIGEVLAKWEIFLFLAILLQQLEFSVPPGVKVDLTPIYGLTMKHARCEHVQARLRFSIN
In words: CYP isoform inhibition in human liver microsomes (Cyprotex). Conditions: human, human liver microsomes, probe ethoxyresorufin (0.5 µM).

For series [6], the target named is T1, human D-amino acid oxidase (hDAAO). Briefly: hDAAO inhibition assay. It counts as biochemical. The conditions noted are these: 7.5 mM D-serine, 30 min. As to the method:
as §4
To examined whether RD2 inhibits hDAAO activity, the enzyme was incubated with 7.5 mM D-serine alone and together with 0 to 625 µM RD2 or sodium benzoate (a known hDAAO inhibitor)[30], horseradish peroxidase and FAD for 30 min and the fluorescence signal of Amplex UltroxRed was recorded. hDAAO residual activity in the presence of different concentrations of RD2 or sodium benzoate was expressed relatively to the values recorded in the absence of ligands (set as 100% activity). The data were fit to a four-parameter equation to determine the curve top, bottom, IC50 and Hill slope.

The test system of series [7] is Rat PC12 (pheochromocytoma) cells. Briefly: MTT cell viability assay. The class given is cell-based. The conditions noted are these: 0.125% Triton X-100, PC12 cells, 24 h, MTT. The procedure:
(§6) Rat PC12 (pheochromocytoma) cells (Leibniz Institute DSMZ, Braunschweig, Germany) were cultivated in Dulbecco’s Modified Eagle Medium (DMEM) supplemented with 10% fetal bovine serum, 5% horse serum and 1% penicillin-streptomycin. 10,000 cells per well were seeded on collagen A-coated 96-well plates (Thermo Fisher Scientific, Waltham, USA) and incubated in a 95% humidified atmosphere with 5% CO2 at 37 °C for 24 h. Samples with untreated RD2 and RD2 or HSM-3 purified from human liver microsomes (see 2.8) in 10 mM sodium phosphate buffer (pH 7.4) were prepared. Buffer without peptides and Triton X-100 (cytotoxic compound) served as controls. The samples were added to the PC12 cells in quadruple and incubated in 95% humidified atmosphere with 5% CO2 at 37 °C for 24 h. Final concentrations were 2 µM untreated RD2, purified RD2, purified HSM-3 and 0.125% Triton X-100. Cell viability was then measured using the Cell Proliferation Kit I (MTT) (Roche, Basel, Switzerland) according to the manufacturer’s instruction. The final absorbance of the formazan product was determined as the absorbance at 570 nm subtracted by the absorbance at 660 nm. All results were normalized to cells that were treated with buffer only. The experiments were performed in triplicate.

The nature of series [8]: Comparison of RD2 metabolite profiles across species: cynomolgus liver microsomes. It counts as in vitro ADME, cynomolgus monkey. The conditions noted are these: cynomolgus microsome batches, LC-MS. The procedure:
as §1, §2
(§7) For the comparison of RD2 metabolite profiles across species (see 2.3), mobile phases were acetonitrile (A) and water (B) each supplemented with 0.1% TFA. […] The amount of the purified HSM-3 was calculated based on a calibration curve of 10 to 100 µM RD2 extracted from human liver microsomes.

Series [9] can be described thus: Comparison of RD2 metabolite profiles across species: human liver microsomes. It counts as in vitro ADME. As to the method: as §1, §5
For the comparison of RD2 metabolite profiles across species (see 2.3), mobile phases were acetonitrile (A) and water (B) each supplemented with 0.1% TFA. The gradient ran from 0 to 100% solvent A and is described in detail in Table S1. The chromatographic RD2 metabolite profiles were screened for potential human-specific metabolites. RD2 and the major RD2 metabolite present after 24 h of incubation in human liver microsome batches 7 and 8, HSM-3, were purified by RP-HPLC. Mobile phases were acetonitrile (A) and water (B) each supplemented with 0.15% TFA. The samples were separated isocratically at 10% solvent A for 30 min. RD2 as well as HSM-3 were collected and the samples were freeze-dried subsequently. The amount of the purified HSM-3 was calculated based on a calibration curve of 10 to 100 µM RD2 extracted from human liver microsomes.

Another series is described as follows: MTT cell viability assay. It counts as cell-based, rat. The conditions noted are these: cell viability. The procedure: as §6
Series [10] can be described thus: Stability of purified HSM-3 stored in solution (MALDI-MS, UHPLC-ESI-QTOF-MS). It counts as physicochemical. The conditions noted are these: stored in solution at low temperatures.
A short description of series [11]: Comparison of RD2 metabolite profiles across species: rat liver microsomes. Conditions: rat microsome batches, LC-MS. The class given is in vitro ADME. As to the method:
as §1, §2, §7

Experimental for CYP1A: The experiments were performed by Cyprotex. […] The reactions were terminated by methanol and the generated metabolites were monitored by LC-MS/MS or fluorescence. […] All assays were performed sevenfold. […] For all other substrates, the termination plates were centrifuged at 2,500 rpm and 4 °C for 30 min and aliquots of the supernatants were combined and transferred to fresh 96-well plates. Formic acid in deionized water (final concentration 0.1%) containing internal standard was added to the supernatants prior to cassette analysis by LC-MS/MS. A decrease in the formation of the metabolite compared to the vehicle control was used to calculate the IC50 values.

Consider KLVFFRRRRRR-NH2, for which, in series [1], the “detection of the peptide after incubation in SIF” value was “could not be detected”.
As for `C[C@@H](N)C(=O)O` [D-alanine], the “recorded emission at 590 nm” value in [2] is given as 61125 ± 2120 AU.
Turning to “PTLHTHNRRRRR-NH2 [L-RD2, reference compound]”, the metabolised at 24 h, 150 µM is 23 ± 4% in [3] and 92 ± 4% in series [4] (150 µM, within one day, read-out: peptide degraded). Besides, in series [4] (read-out: half-life (first order kinetics fit) (converted)), the half-life at 150 µM is 2 h. In series [1] (150 µM), the “metabolization in SIF” value is listed as “completely metabolized within a few seconds”. Moreover, the “deamidation in human liver microsomes” value in series [5] (UHPLC-ESI-QTOF-MS) is reported as “increasingly metabolized to the one-fold deamidated species”. Further, the metabolised at 0.5 h, 150 µM in [5] (pooled human liver microsomes, 150 µM, 37 °C, within 30 min, read-out: peptide degraded) stood at 87 ± 1%.
Regarding `O=c1cc(-c2ccccc2)oc2c1ccc1ccccc12` [Alpha-naphthoflavone, reference compound], on CYP1A, the IC50 amounted to 0.0781 µM.
Regarding `O=C([O-])c1ccccc1.[Na+]` [sodium benzoate], the “decrease in hDAAO activity” value in [6] (625 µM) is 92.8 ± 0.1% and 93 ± 0.1%. Besides, the IC50 in series [6] (read-out: IC50 hDAAO (four-parameter fit)) was determined as 7 µM.
In series [7], Triton X-100 [reference compound] returned a cell viability of 14 ± 1%.
For the compound `CC(C)C[C@@H](NC(=O)[C@@H]([C@H](C)O)N1CN2CCC[C@@H]2C1=O)C(=O)N[C@H](Cc1c[nH]cn1)C(=O)N[C@@H](C(=O)N[C@H](Cc1c[nH]cn1)C(=O)N[C@H](CC(N)=O)C(=O)N[C@H](CCCNC(=N)N)C(=O)N[C@H](CCCNC(=N)N)C(=O)N[C@H](CCCNC(=N)N)C(=O)N[C@H](CCCNC(=N)N)C(=O)N[C@H](CCCNC(=N)N)C(N)=O)[C@H](C)O` [HSM-3] (X1-[dL][dH][dT][dH][dN][dR][dR][dR][dR][dR]-NH2; C-terminus assumed), the “detection of HSM-3 after incubation of RD2” value in series [8] is reported as “not detectable”; in [9] (other six human microsome batches, LC-MS), “not detectable”; in [11], “not detectable”. The “metabolite relative to the parent compound” value was 1% and 5% in series [9] (human microsome batches 7 and 8, 2 h); 31% and 52% in series [9] (human microsome batches 7 and 8, 24 h). The viability at 2 µM in “MTT cell viability assay” stood at 99 ± 3%. In [10], the “stability of purified HSM-3 in solution” value is “instable and reacted back to RD2”.
